Legend:
[1] = target: T1, rabbit TPI (purified from muscle) (Oryctolagus cuniculus, UniProt P00939); assay: TPI activity assay, PEP titration; Ki by Cheng-Prusoff equation; assay type: biochemical
T1 construct: gene TPI1; native enzyme purified from rabbit muscle; homodimer

yeast TPI (endogenous) [2] = target: T2, yeast TPI (endogenous) (Saccharomyces cerevisiae, UniProt P00942); assay: TPI activity assay, PEP titration; assay type: cell-based; details: substrate gly3p, yeast extract
T2 construct: gene TPI1; endogenous full-length enzyme in yeast extract, activity normalized to total cellular protein; homodimer
T2 sequence (P00942 2-248): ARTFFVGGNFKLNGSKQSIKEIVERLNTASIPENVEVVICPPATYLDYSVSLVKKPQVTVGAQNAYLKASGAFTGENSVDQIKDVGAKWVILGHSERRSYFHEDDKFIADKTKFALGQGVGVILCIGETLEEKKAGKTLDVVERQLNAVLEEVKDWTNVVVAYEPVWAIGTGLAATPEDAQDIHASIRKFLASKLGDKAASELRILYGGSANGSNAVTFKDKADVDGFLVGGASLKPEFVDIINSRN
Excerpt: TPI activity assay, PEP titration on yeast TPI (endogenous) | IC50 values and the inhibitory constant Ki are given in μM

[3] = target: T3, human TPI (expressed in yeast) (Homo sapiens, UniProt P60174); assay: TPI activity assay, PEP titration; assay type: cell-based
T3 construct: gene TPI1; human TPI expressed in transgenic yeast lacking endogenous TPI1; extract, activity normalized to total cellular protein; homodimer
Excerpt: TPI activity assay, PEP titration on human TPI (expressed in yeast) | IC50 values and the inhibitory constant Ki are given in μM

[4] = target: T1, rabbit TPI (purified from muscle); assay: TPI activity assay, PEP titration; assay type: biochemical
Excerpt: TPI activity assay, PEP titration on rabbit TPI (purified from muscle) | IC50 values and the inhibitory constant Ki are given in μM

[5] = target: T3, human TPI (expressed in yeast); assay: TPI activity assay, PEP titration; Ki by Cheng-Prusoff equation; assay type: biochemical
yeast TPI (endogenous) [6] = target: T2, yeast TPI (endogenous); assay: as above; assay type: biochemical; details: substrate gly3p, yeast extract
yeast TPI (endogenous) [7] = target: T2, yeast TPI (endogenous); assay: TPI activity assay, Michaelis-Menten kinetics; assay type: biochemical; details: yeast extract, no PEP

T1 sequence (P00939 2-249): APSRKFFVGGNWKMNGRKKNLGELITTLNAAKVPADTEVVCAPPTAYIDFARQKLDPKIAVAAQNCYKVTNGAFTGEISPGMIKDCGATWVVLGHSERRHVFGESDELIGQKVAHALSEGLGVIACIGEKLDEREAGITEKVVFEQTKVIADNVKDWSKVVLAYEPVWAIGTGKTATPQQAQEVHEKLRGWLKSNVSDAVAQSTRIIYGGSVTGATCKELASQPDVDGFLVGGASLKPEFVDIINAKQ
T3 sequence (P60174 2-249): as the sequence (P00939 2-249) above, with K19Q, N20S, T26G, S118A counted along it

SMILES	Ki [1] [µM]	IC50 (yeast TPI (endogenous) [2]) [µM]	IC50 [3] [µM]	IC50 [4] [µM]	Ki [5] [µM]	Ki (yeast TPI (endogenous) [6]) [µM]	Km (yeast TPI (endogenous) [7]) [µM]
C=C(OP(=O)(O)O)C(=O)O [PEP]	156	1130	531	515	163	392	–
O=C[C@H](O)COP(=O)(O)O [gly3p]	–	–	–	–	–	–	854

— publication PMC3202625, “Pyruvate Kinase Triggers a Metabolic Feedback Loop that Controls Redox Metabolism in Respiring Cells” (Cell Metabolism, 2011)
